Literature values as cited in patent US12691128B2, “Methods of treating eosinophilic esophagitis and reducing candidiasis” (Ellodi Pharmaceuticals, L.P., priority 2019, dated 2026).
Read-outs that look alike come from different tables or passages of the source. Blank lines part the entries; values can stand above or below the compound they belong to.

Columns and labels:
glucocorticoid receptor = molecular target: T1, glucocorticoid receptor (Homo sapiens, UniProt P04150); parameters: reference not given here
T1 sequence (P04150 1-777): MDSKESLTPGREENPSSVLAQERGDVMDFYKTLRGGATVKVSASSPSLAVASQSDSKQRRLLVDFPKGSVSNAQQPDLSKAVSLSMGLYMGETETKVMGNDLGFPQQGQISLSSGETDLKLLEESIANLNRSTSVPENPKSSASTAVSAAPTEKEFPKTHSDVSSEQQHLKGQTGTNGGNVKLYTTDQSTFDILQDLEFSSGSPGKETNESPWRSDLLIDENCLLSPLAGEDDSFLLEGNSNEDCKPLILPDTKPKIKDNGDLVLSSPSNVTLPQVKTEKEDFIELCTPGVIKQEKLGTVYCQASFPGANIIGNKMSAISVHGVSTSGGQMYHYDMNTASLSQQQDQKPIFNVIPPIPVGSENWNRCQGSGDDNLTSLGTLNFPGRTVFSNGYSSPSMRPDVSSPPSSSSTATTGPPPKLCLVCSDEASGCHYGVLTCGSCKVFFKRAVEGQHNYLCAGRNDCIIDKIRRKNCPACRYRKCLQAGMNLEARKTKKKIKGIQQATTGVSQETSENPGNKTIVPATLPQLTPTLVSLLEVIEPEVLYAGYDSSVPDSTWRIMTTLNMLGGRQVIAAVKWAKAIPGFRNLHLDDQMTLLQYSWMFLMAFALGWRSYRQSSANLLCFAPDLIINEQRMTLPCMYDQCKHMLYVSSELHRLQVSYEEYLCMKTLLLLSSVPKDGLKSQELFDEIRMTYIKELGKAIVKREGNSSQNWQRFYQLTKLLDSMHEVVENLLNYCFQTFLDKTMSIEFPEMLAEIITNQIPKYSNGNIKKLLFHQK

[1] = reported
[2] = molecular target: cytochrome (CYP) isoenzyme 2C9 (Homo sapiens, UniProt P11712)
cytochrome (CYP) isoenzyme 2C9, sequence (P11712 whole entry): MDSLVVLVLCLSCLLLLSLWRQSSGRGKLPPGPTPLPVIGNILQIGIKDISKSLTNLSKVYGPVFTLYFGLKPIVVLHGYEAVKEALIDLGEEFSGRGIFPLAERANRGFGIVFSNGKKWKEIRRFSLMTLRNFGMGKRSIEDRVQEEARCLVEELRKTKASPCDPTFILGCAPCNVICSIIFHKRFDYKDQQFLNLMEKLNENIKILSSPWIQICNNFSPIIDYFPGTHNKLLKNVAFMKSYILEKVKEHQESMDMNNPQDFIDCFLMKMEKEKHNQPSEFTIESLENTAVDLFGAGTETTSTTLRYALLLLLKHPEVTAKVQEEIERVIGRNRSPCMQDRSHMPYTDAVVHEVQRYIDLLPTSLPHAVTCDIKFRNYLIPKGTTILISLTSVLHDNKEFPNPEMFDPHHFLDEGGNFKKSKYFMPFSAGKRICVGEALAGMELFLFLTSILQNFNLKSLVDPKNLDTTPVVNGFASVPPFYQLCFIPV

CYP3A4 = CYP3A4 (Homo sapiens, UniProt P08684)
CYP3A4, sequence (P08684 whole entry): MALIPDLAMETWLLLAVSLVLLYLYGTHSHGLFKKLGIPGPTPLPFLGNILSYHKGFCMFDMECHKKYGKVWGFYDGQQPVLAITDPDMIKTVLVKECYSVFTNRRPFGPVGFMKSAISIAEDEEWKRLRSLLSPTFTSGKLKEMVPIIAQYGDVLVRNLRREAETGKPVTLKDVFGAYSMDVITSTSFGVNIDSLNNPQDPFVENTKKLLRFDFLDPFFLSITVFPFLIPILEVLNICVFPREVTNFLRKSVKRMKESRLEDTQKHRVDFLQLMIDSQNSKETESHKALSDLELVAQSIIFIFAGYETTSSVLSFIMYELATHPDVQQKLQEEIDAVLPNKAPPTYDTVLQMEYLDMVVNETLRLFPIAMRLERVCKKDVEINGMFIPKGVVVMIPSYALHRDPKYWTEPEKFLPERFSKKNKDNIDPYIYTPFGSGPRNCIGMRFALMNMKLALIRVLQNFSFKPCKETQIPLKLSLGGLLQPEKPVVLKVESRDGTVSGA

SMILES: CC1(C)O[C@@H]2C[C@H]3[C@@H]4CCC5=CC(=O)C=C[C@]5(C)[C@@]4(F)[C@@H](O)C[C@]3(C)[C@]2(C(=O)CO)O1 [Triamicinolone acetonide]
- Relative Glucocorticoid Receptor Binding Affinity (glucocorticoid receptor): 233

SMILES: C[C@]12C=CC(=O)C=C1CC[C@@H]1[C@@H]2[C@@H](O)C[C@@]2(C)[C@H]1CC[C@]2(O)C(=O)CO [Prednisolone]
- Relative Glucocorticoid Receptor Binding Affinity (glucocorticoid receptor): 12

SMILES: C[C@]12C=CC(=O)C=C1CC[C@@H]1[C@@H]2[C@@H](O)C[C@@]2(C)[C@H]1C[C@H]1O[C@@H](C3CCCCC3)O[C@]12C(=O)CO [des-CIC]
- Relative Glucocorticoid Receptor Binding Affinity (glucocorticoid receptor): 12 (1200)

Other lines, results leading:

- Relative Glucocorticoid Receptor Binding Affinity (glucocorticoid receptor): 1775
- Solubility (acetone, dichloromethane, ethyl acetate and chloroform): sparingly soluble
- Solubility (dimethyl sulfoxide and dimethylformamide): freely soluble
- Solubility (methanol and 95% ethanol): slightly soluble
- Solubility (water): practically insoluble
- Oral bioavailability [1]: less than 1%
SMILES: CCC(=O)O[C@]1(C(=O)SCF)[C@H](C)C[C@H]2[C@@H]3C[C@H](F)C4=CC(=O)C=C[C@]4(C)[C@@]3(F)[C@@H](O)C[C@@]21C [Fluticasone propionate, S-(fluoromethyl)-6α,9-difluoro-11β, 17-dihydroxy-16α-methyl-3-oxoandrosta-1,4-diene-17β-carbothioate, 17-propanoate]

- Inhibition of cytochrome (CYP) isoenzyme 2C9 [2]: potent inhibitor
- Inhibition of CYP3A4 (CYP3A4): moderate inhibitor
SMILES: OC(Cn1cncn1)(Cn1cncn1)c1ccc(F)cc1F [fluconazole]

- Relative Glucocorticoid Receptor Binding Affinity (glucocorticoid receptor): 190
SMILES: CC1(C)O[C@@H]2C[C@H]3[C@@H]4C[C@H](F)C5=CC(=O)C=C[C@]5(C)[C@H]4[C@@H](O)C[C@]3(C)[C@]2(C(=O)CO)O1 [Flunisolide]
